Data as given in patent US20250170176A1, “METHODS OF TREATMENT WITH CAR CELLS IN COMBINATION WITH S1P RECEPTOR MODULATORS” (PRIOTHERA SAS, priority 2022, published 2025).

Tests used:
[1] = tested on: absolute lymphocyte counts; conditions: healthy volunteers; multiple dose applications for 28 days; cited from earlier work
[2] = tested on: CAR-T cells; test: CAR-T cell activation markers by flow cytometry in leukemia mice (Example 1); format: in vivo, mouse (C57BL/6J); conditions: KRP203 administered from day −1
From the text: 6 to 8-week-old C57BL/6J male mice were obtained from Envigo. Ubi-GFP RAG1−/−OT-I TCR mice were bred and crossed in our animal facility under specific pathogen-free conditions. All experiments were approved by Institut Pasteur's Safety Committee in accordance with French and European guidelines (CETEA 2017-0038). Immortalized pro-B cells were generated by infecting bone marrow cells with a retrovirus encoding viral-Abelson kinase (v-abl). This tumor cell line was then retrovirally transduced to express a fluorescence resonance energy transfer (FRET)-based reporter for caspase 3 activity. Mice were examined every day and sacrificed in case of prostration, tousled hair, weakness or nodal tumor mass >1 cm. Cells were cultured in RPMI medium 1640-GlutaMAX™ supplemented with 10% heat-inactivated fetal bovine serum, 50 U·mL-1 penicillin, 50 μg·mL-1 streptomycin, 1 mM sodium pyruvate, 10 mM HEPES and 50 μM 2-mercaptoethanol, and maintained at 37° C. and 5% CO2. Cells were routinely tested for the absence of Mycoplasma contamination (Venor-GeM Advance mycoplasma detection kit, Minerva Biolabs). […]
For ex vivo analysis, bone marrow cells were isolated by flushing femurs and tibias from tumor-bearing mice and subsequent filtering through 70 μm cell strainers. […] Analyses were performed using a Cytoflex LX (Beckman Coulter) flow cytometer and analyzed with FlowJo v10.8.0 (BD). […]

[3] = tested on: IFN-g, TNF-α and IL-2; test: Kinetics of plasma cytokines (BD CBA Human Th1/Th2/Th17) in JEKO-1 bearing NCG mice given CAR T cells (Example 3); format: in vivo, mouse (NCG); conditions: 5 days after CAR-T cells; mocravimod 3 mg/kg every second day from day 6
Experimental: (§1) To determine the kinetics of cytokine secretion and to evaluate the effectiveness of mocravimod in reducing the level of circulating cytokines when administered in combination with CAR T cells, NOD CRISPR Prkdc 112r Gamma (NCG) mice were injected i.v. with 5×10^6 JEKO-1-luc-GFP tumor cells. Treatment with either mocravimod or vehicle started on day 6 after tumor cell engraftment. Mocravimod (3 mg/kg) was administered every second day. 0.75×10^6 CAR T cells were injected i.v. on day 7 after tumor cell engraftment. Mice were bled 24 h, 48 h, 72 h, 96 h and 120 h post CAR T cell injection and plasma was collected. Interferon-g (IFN-g), Tumor necrosis factor-a (TNF-α) and Interleukin-2 (IL-2) were analyzed in plasma samples using the BD CBA Human Th1/Th2/Th17 cytokine assay. CAR T cells were phenotyped and enumerated in blood.

[4] = tested on: CAR-T cells; test: Absolute numbers of CAR-T cells in blood (Example 3); format: in vivo, mouse (NCG); conditions: mocravimod with CAR-T cells
Experimental: as §1
The same protocol as example 1 has been conducted for the method of analyzing CAR-T cells in bone marrow and the same protocol as the cytokine assay has been conducted for the method of analyzing CAR-T cells in blood.

In the case of `CCc1cc(/C(C)=N/OCc2ccc(C3CCCCC3)c(C(F)(F)F)c2)ccc1CN1CC(C(=O)O)C1` [BAF312], the “Recovery of absolute lymphocyte counts to 80% of normal counts reached after” value [1] is given as 7 days.

With `NC(CO)(CO)CCc1ccc(Sc2cccc(OCc3ccccc3)c2)cc1Cl` [mocravimod, 2-amino-2-[4-(3-benzyloxyphenylthio)-2-chlorophenyl]ethyl-propane-1,3-diol] the “percentage of activation of CAR-T cells in lymph nodes, increase in comparison to the control” value [2] was 2-3 times, the “level of IFN-g in blood (plasma)” value [3] was “around 100 μg/mL” and the “level of IL-2 in blood (plasma)” value [3] was “around 2 μg/mL”. For the same molecule, the “level of TNFa in blood (plasma)” value [3] was “around 0 μg/mL”, the “absolute number of CAR-T cells in blood” value ([4]; day 1 after CAR-T injection) was “around 500” and the “absolute number of CAR-T cells in blood” value ([4]; day 3 after CAR-T injection) was “around 500”. For the same molecule, the “absolute number of CAR-T cells in blood” value ([4]; day 5 after CAR-T injection) was “around 100”.
